Reference: US20200369626A1 (Washington University, priority 2019, published 2020)

molecular target: T1, S1PR2 (Homo sapiens, UniProt O95136); test: competitive [^32P]S1P binding assay on cell membranes, S1PR2; details: IC50 S1PR2, Table 5
T1 construct: purchased
T1 sequence (O95136 whole entry): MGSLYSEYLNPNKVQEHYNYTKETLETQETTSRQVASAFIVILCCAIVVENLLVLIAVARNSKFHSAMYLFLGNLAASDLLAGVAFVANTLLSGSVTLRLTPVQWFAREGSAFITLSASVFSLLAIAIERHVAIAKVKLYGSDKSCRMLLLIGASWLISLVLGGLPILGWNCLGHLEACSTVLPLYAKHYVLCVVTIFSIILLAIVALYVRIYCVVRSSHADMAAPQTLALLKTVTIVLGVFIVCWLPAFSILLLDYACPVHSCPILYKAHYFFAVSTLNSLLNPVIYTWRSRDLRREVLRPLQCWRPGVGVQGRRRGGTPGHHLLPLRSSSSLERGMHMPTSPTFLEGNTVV
Experimental: The test compounds were dissolved in DMSO and diluted into test samples with increasing concentrations with assay buffer. Commercial cell membranes expressing recombinant human S1PR were diluted with assay buffer to make a 20-40 μg/mL of solution. […] The plate was incubated for 60 min at room temperature with shaking and terminated by collecting the membranes onto 96-well glass fiber (GF/B) filtration plates (Millipore, Billerica, Mass.). Each filter was washed with 200 μL of assay buffer for a total of five washes. […] The IC50 values were fitted from GraphPad Prism 6 using one site Nonlinear Regression.

Row | SMILES | IC50
1 | CNC(=O)c1ccc(Oc2cc(NC(=O)N3CCC(=O)CC3)cc(C(F)(F)F)c2)cc1 [TZ51-020] | > 1000 nM
2 | CNC(=O)c1ccc(Oc2cc(NC(=O)N3CCC4(CC3)OCCO4)cc(C(F)(F)F)c2)cc1 [TZ51-022] | > 1000 nM

same assay, conditions: Table 5; read-out: IC50 S1PR2

Row | SMILES | IC50
3 | CCC(CC)CC1(O)CCN(C(=O)Nc2cc(Oc3ccc(C(=O)NC)cc3)c3c(c2)oc2ccc(F)cc23)CC1 [TZ51-011] | 472 ± 244 nM
4 | CCC(CC)CC1(O)CCN(C(=O)Nc2cc(Oc3ccc(C(=O)NC)cc3)cc(C(F)(F)F)c2)CC1 [TZ51-018] | > 1000 nM
5 | CNC(=O)c1ccc(Oc2cc(NC(=O)N3CCOCC3)cc(C(F)(F)F)c2)cc1 [TZ51-019] | > 1000 nM
6 | CNC(=O)c1ccc(Oc2cc(NC(=O)N3CCC(O)CC3)cc(C(F)(F)F)c2)cc1 [TZ51-041] | > 1000 nM
7 | CNC(=O)c1ccc(Oc2cc(NC(=O)N3CCC(O)(C(C)C)CC3)cc(C(F)(F)F)c2)cc1 [TZ51-044] | > 1000 nM
8 | CC(C)C1(O)CCN(C(=O)Nc2cc(Oc3ccc(S(C)(=O)=O)cc3)cc(C(F)(F)F)c2)CC1 [TZ51-045] | > 1000 nM
9 | CCC1(O)CCN(C(=O)Nc2cc(Oc3ccc(C(=O)NC)cc3)cc(C(F)(F)F)c2)CC1 [TZ51-046] | > 1000 nM
10 | CCC1(O)CCN(C(=O)Nc2cc(Oc3ccc(S(C)(=O)=O)cc3)cc(C(F)(F)F)c2)CC1 [TZ51-047] | > 1000 nM
11 | CNC(=O)c1ccc(Oc2cc(NC(=O)N3CCC(C)(O)CC3)cc(C(F)(F)F)c2)cc1 [TZ51-057] | > 1000 nM
12 | CC1(O)CCN(C(=O)Nc2cc(Oc3ccc(S(C)(=O)=O)cc3)cc(C(F)(F)F)c2)CC1 [TZ51-058] | > 1000 nM
13 | COc1ccc(Oc2cc(NC(=O)N3CCC(O)(C(C)C)CC3)cc(C(F)(F)F)c2)cc1 [TZ51-059] | > 1000 nM
14 | CC(C)C1(O)CCN(C(=O)Nc2cc(Oc3ccncc3)cc(C(F)(F)F)c2)CC1 [TZ51-061] | > 1000 nM
15 | CC(C)CC1(O)CCN(C(=O)Nc2cc(Oc3ccc(C(=O)O)cc3)cc(C(F)(F)F)c2)CC1 [TZ51-073] | > 1000 nM
16 | CC(C)CC1(O)CCN(C(=O)Nc2cc(Oc3ccc(C(=O)N(C)C)cc3)cc(C(F)(F)F)c2)CC1 [TZ51-095] | > 1000 nM
17 | CC(C)CC1(O)CCN(C(=O)Nc2cc(Oc3ccc(C(N)=O)cc3)cc(C(F)(F)F)c2)CC1 [TZ51-096] | > 1000 nM
18 | CNC(=O)c1ccc(Oc2cc(NC(=O)N3CC(O)(CC(C)C)C3)cc(C(F)(F)F)c2)cc1 [TZ51-097] | > 1000 nM
19 | CNC(=O)c1ccc(Oc2cc(NC(=O)N3CCC(O)(CC(C)C)CC3)cc(C(F)(F)F)c2)cc1 [TZ51-108] | > 1000 nM
20 | CNC(=O)c1ccc(Oc2cc(NC(=O)N3CC(N4CCN(C)CC4)C3)cc(C(F)(F)F)c2)cc1 [TZ51-112] | > 1000 nM
21 | CNC(=O)c1ccc(Sc2cc(NC(=O)N3CCC(O)(CC(C)C)CC3)cc(C(F)(F)F)c2)cc1 [TZ51-121] | 421 ± 90 nM
22 | CCC(CC)CC1(O)CCN(C(=O)Nc2cc(OCCCF)cc(Oc3ccc(C(=O)NC)cc3)c2)CC1 [TZ51-133] | > 1000 nM
23 | CCC(CC)CC1(O)CCN(C(=O)Nc2cc(OCCCF)cc(Oc3ccc(F)cc3)c2)CC1 [TZ51-139] | > 1000 nM
24 | CCC(CC)CC1(O)CCN(C(=O)Nc2cc(OCCF)cc(Oc3ccc(F)cc3)c2)CC1 [TZ51-149] | > 1000 nM
25 | CCC(CC)CC1(O)CCN(C(=O)Nc2nc(Oc3ccc(F)cc3)nc(Oc3ccc(F)cc3)n2)CC1 [TZ51-150] | > 1000 nM
26 | CCC(CC)CC1(O)CCN(C(=O)Nc2nc(Oc3ccc(F)cc3)cc(Oc3ccc(F)cc3)n2)CC1 [TZ57-007] | > 1000 nM
27 | CCC(CC)CC1(O)CCN(C(=O)Nc2cc(Oc3ccc(F)cc3)cc(N3CCN(C)CC3)c2)CC1 [TZ57-013] | > 1000 nM
28 | CCC(CC)CC1(O)CCN(C(=O)Nc2cc(Oc3ccc(F)cc3)cc(-n3cccn3)c2)CC1 [TZ57-016] | > 1000 nM
29 | CC(C)CC1(O)CCN(C(=O)Nc2cc(Oc3ccc(S(C)(=O)=O)cc3)cc(Oc3ccc(F)nc3)c2)CC1 [TZ57-040] | 211 ± 32 nM
30 | CCC(CC)CC1(O)CCN(C(=O)Nc2cc(Oc3ccc(S(C)(=O)=O)cc3)cc(Oc3ccc(F)nc3)c2)CC1 [TZ57-041] | 198 ± 45 nM

same assay, conditions: [^32P]S1P competition, IC50 ± SD, Table 1 (2a-l, 4a-h); read-out: IC50 (binding potency toward S1PR2)

Row | SMILES | IC50
31 | COc1cccc(NC(=O)Cn2c(=O)c3ccccc3n(CC(=O)Nc3cc(Cl)c(OC)cc3OC)c2=O)c1 [Compound 2b] | 39.1 ± 7 nM
32 | COc1cc(OC)c(NC(=O)Cn2c(=O)n(CC(=O)NCCc3cccnc3)c(=O)c3ccccc32)cc1Cl [Compound 2f] | 58.7 ± 9 nM
33 | COc1cc(OC)c(NC(=O)Cn2c(=O)n(CC(=O)Nc3cc(Cl)nc(Cl)c3)c(=O)c3ccccc32)cc1Cl [Compound 2g] | > 1000 nM
34 | COc1cc(OC)c(NC(=O)Cn2c(=O)n(CC(=O)NCCOCCO)c(=O)c3ccccc32)cc1Cl [Compound 2i] | 91.4 ± 17.6 nM
35 | CNC(=O)Cn1c(=O)c2ccccc2n(CC(=O)Nc2cc(Cl)c(OC)cc2OC)c1=O [Compound 2k] | 376 ± 91 nM
36 | COc1cc(OC)c(NC(=O)Cn2c(=O)n(CC(=O)N(C)C)c(=O)c3ccccc32)cc1Cl [Compound 2l] | 175 ± 13 nM

same assay, conditions: [^32P]S1P competition, IC50 ± SD, second Table 1; read-out: S2PR2 IC50

Row | SMILES | IC50
37 | CCC(CC)CC1(O)CCN(C(=O)Nc2cc(OCCF)cc(Oc3ccc(F)cc3)c2)CC1 [Compound 11a, 4-(2-Ethylbutyl)-N-(3-(2-fluoroethoxy)-5-(4-fluorophenoxy)phenyl)-4-hydroxypiperidine-1-carboxamide] | > 1000 nM
38 | CCC(CC)CC1(O)CCN(C(=O)Nc2cc(OCCCF)cc(Oc3ccc(F)cc3)c2)CC1 [Compound 11b, 4-(2-Ethylbutyl)-N-(3-(4-fluorophenoxy)-5-(3-fluoropropoxy)phenyl)-4-hydroxypiperidine-1-carboxamide] | > 1000 nM
39 | CCC(CC)CC1(O)CCN(C(=O)Nc2cc(Oc3ccc(F)cc3)cc(N3CCN(C)CC3)c2)CC1 [Compound 17a, 4-(2-Ethylbutyl)-N-(3-(4-fluorophenoxy)-5-(4-methylpiperazin-1-yl)phenyl)-4-hydroxypiperidine-1-carboxamide] | > 1000 nM
40 | CCC(CC)CC1(O)CCN(C(=O)Nc2cc(Oc3ccc(F)cc3)cc(-n3cccn3)c2)CC1 [Compound 17b, 4-(2-Ethylbutyl)-N-(3-(4-fluorophenoxy)-5-(1H-pyrazol-1-yl)phenyl)-4-hydroxypiperidine-1-carboxamide] | > 1000 nM
41 | CCC(CC)CC1(O)CCN(C(=O)Nc2cc(Oc3ccc(C(=O)NC)cc3)cc(C(F)(F)F)c2)CC1 [Compound 21c, 4-(2-Ethylbutyl)-4-hydroxy-N-(3-(4-(methylcarbamoyl)-phenoxy)-5 (trifluoromethyl)phenyl)piperidine-1-carboxamide] | 278 nM
42 | CNC(=O)c1ccc(Oc2cc(NC(=O)N3CCC(C)(O)CC3)cc(C(F)(F)F)c2)cc1 [Compound 25a, 4-Hydroxy-4-methyl-N-(3-(4-(methylcarbamoyl)phenoxy)-5-(trifluoromethyl)phenyl)piperidine-1-carboxamide] | > 1000 nM
43 | CC1(O)CCN(C(=O)Nc2cc(Oc3ccc(S(C)(=O)=O)cc3)cc(C(F)(F)F)c2)CC1 [Compound 25b, 4-Hydroxy-4-methyl-N-(3-(4-(methylsulfonyl)phenoxy)-5-(trifluoromethyl)phenyl)piperidine-1-carboxamide] | > 1000 nM
44 | CCC1(O)CCN(C(=O)Nc2cc(Oc3ccc(C(=O)NC)cc3)cc(C(F)(F)F)c2)CC1 [Compound 25c, 4-Ethyl-4-hydroxy-N-(3-(4-(methylcarbamoyl)phenoxy)-5-(trifluoromethyl)phenyl)piperidine-1-carboxamide] | > 1000 nM
45 | CCC1(O)CCN(C(=O)Nc2cc(Oc3ccc(S(C)(=O)=O)cc3)cc(C(F)(F)F)c2)CC1 [Compound 25d, 4-Ethyl-4-hydroxy-N-(3-(4-(methylsulfonyl)phenoxy)-5-(trifluoromethyl)phenyl)piperidine-1-carboxamide] | > 1000 nM
46 | CNC(=O)c1ccc(Oc2cc(NC(=O)N3CCC(O)(C(C)C)CC3)cc(C(F)(F)F)c2)cc1 [Compound 25e, 4-Hydroxy-4-isopropyl-N-(3-(4-(methylcarbamoyl)phenoxy)-5-(trifluoromethyl)phenyl)piperidine-1-carboxamide] | > 1000 nM
47 | CC(C)C1(O)CCN(C(=O)Nc2cc(Oc3ccc(S(C)(=O)=O)cc3)cc(C(F)(F)F)c2)CC1 [Compound 25f, 4-Hydroxy-4-isopropyl-N-(3-(4-(methylsulfonyl)phenoxy)-5-(trifluoromethyl)phenyl)piperidine-1-carboxamide] | > 1000 nM
48 | CNC(=O)c1ccc(Oc2cc(NC(=O)N3CCC(O)(CC(C)C)CC3)cc(C(F)(F)F)c2)cc1 [Compound 25g, 4-Hydroxy-4-isobutyl-N-(3-(4-(methylcarbamoyl)phenoxy)-5-(trifluoromethyl)phenyl)piperidine-1-carboxamide] | 359 nM
49 | CC(C)CC1(O)CCN(C(=O)Nc2cc(Oc3ccc(S(C)(=O)=O)cc3)cc(C(F)(F)F)c2)CC1 [Compound 25h, 4-Hydroxy-4-isobutyl-N-(3-(4-(methylsulfonyl)phenoxy)-5-(trifluoromethyl)phenyl)piperidine-1-carboxamide] | 296 nM
50 | CNC(=O)c1ccc(Oc2cc(NC(=O)N3CC(O)(CC(C)C)C3)cc(C(F)(F)F)c2)cc1 [Compound 25i, 3-Hydroxy-3-isobutyl-N-(3-(4-(methylcarbamoyl)phenoxy)-5-(trifluoromethyl)phenyl)azetidine-1-carboxamide] | > 1000 nM

same assay, conditions: [^32P]S1P competition; read-out: IC50 value, S1PR2 binding

Row | SMILES | IC50
51 | COc1cc(OC)c(NC(=O)Cn2c(=O)n(CC(=O)Nc3ccc(O)cc3)c(=O)c3ccccc32)cc1Cl [Compound 2e] | 2.6 ± 0.3 nM
52 | CCC(CC)CC1(O)CCN(C(=O)Nc2cc(OCCF)cc(Oc3ccc(F)cc3)c2)CC1 [Compound 11a, 4-(2-Ethylbutyl)-N-(3-(2-fluoroethoxy)-5-(4-fluorophenoxy)phenyl)-4-hydroxypiperidine-1-carboxamide] | > 1000 nM
53 | CCC(CC)CC1(O)CCN(C(=O)Nc2cc(OCCCF)cc(Oc3ccc(F)cc3)c2)CC1 [Compound 11b, 4-(2-Ethylbutyl)-N-(3-(4-fluorophenoxy)-5-(3-fluoropropoxy)phenyl)-4-hydroxypiperidine-1-carboxamide] | > 1000 nM
54 | CN1CCN(c2cc(Oc3ccc(F)cc3)cc([N+](=O)[O-])c2)CC1 [Compound 15a, 1-(3-(4-Fluorophenoxy)-5-nitrophenyl)-4-methylpiperazine] | > 1000 nM
55 | O=[N+]([O-])c1cc(Oc2ccc(F)cc2)cc(-n2cccn2)c1 [Compound 15b, 1-(3-(4-Fluorophenoxy)-5-nitrophenyl)-1H-pyrazole] | > 1000 nM
56 | CCC(CC)CC1(O)CCN(C(=O)Nc2cc(Oc3ccc(S(C)(=O)=O)cc3)cc(C(F)(F)F)c2)CC1 [Compound 21f, 4-(2-Ethylbutyl)-4-hydroxy-N-(3-(4-(methylsulfonyl)phenoxy)-5-(trifluoromethyl)phenyl)piperidine-1-carboxamide] | 270 nM
57 | CNC(=O)c1ccc(Oc2cc(NC(=O)N3CC(O)(CC(C)C)C3)cc(C(F)(F)F)c2)cc1 [Compound 25i, 3-Hydroxy-3-isobutyl-N-(3-(4-(methylcarbamoyl)phenoxy)-5-(trifluoromethyl)phenyl)azetidine-1-carboxamide] | > 1000 nM
